Our source for the IC50 values is US8921373B2, “Compounds having TRPV1 antagonistic activity and uses thereof” (Shionogi & Co., Ltd., priority 2010, dated 2014).

Like-named read-outs stand apart in the source and are kept apart here.

The target of this test is human recombinant TRPV1 (Homo sapiens (Human), UniProt Q8NER1). Briefly: TRPV1 pH-Based Assay (Protocol 2, Ca2+ response in TRPV1/CHO cells, Fura-2). The class given is cell-based. The following applies: TRPV1/CHO cells, pH 5.0-5.1. On the procedure: For Protocol 2, a Chinese Hamster Ovary cell line (CHO) that has been engineered to constitutively express human recombinant TRPV1 was used (TRPV1/CHO cells). The TRPV1/CHO cell line was generated as described below.
Sequence of human recombinant TRPV1 (Q8NER1 whole entry): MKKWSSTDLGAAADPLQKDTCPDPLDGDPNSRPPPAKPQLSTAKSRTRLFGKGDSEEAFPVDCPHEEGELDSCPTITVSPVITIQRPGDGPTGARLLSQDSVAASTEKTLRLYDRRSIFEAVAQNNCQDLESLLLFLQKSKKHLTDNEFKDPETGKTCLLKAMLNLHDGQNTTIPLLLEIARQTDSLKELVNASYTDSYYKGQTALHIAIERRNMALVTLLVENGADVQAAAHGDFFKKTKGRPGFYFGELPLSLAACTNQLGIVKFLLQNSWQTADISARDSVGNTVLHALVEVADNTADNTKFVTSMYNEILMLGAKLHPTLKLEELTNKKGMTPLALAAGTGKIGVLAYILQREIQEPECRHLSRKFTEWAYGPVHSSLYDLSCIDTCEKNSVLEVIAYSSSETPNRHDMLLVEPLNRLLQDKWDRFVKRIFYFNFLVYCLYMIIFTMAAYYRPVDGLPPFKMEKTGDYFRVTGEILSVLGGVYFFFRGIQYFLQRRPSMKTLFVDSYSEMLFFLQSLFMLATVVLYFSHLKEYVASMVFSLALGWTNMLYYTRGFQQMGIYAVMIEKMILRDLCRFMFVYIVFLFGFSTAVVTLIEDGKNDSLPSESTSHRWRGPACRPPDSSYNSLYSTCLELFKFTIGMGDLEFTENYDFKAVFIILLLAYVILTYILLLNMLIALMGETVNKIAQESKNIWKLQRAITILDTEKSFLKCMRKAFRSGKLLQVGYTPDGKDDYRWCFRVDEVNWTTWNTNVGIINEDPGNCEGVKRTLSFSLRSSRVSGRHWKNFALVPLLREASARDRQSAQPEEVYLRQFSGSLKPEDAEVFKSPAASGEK
TRPV1/CHO cells were seeded in the 96-well clear-bottom black-wall plate (Nunc) at densities of 1-2×10^4 cells/well and grown in 100 μL of culture medium (alpha-MEM supplemented with 10% FBS, 20 mM HEPES, 1 mg/mL geneticin and 1% antibiotic-antimycotic mixed stock solution) for 1-2 days before the experiment.
(2) The 96-well plate was incubated at 37° C. for 45 min.
(3) The loading buffer was removed from each well. […] The wells were then refilled with 80 μL of measuring buffer.
(4) After an incubation at 4° C. for 15 min, the 96-well plate was transferred to FDSS-3000 (Hamamatsu Photonics, Japan).
(5) The Fura-2 fluorescent intensity was monitored at a wavelength of 340 nm and at 380 nm, respectively, at a rate of 0.5 Hz for a total of 240 seconds. After 16 time points (32 sec) of baseline detection, 20 μL of agonist solution was added to each well. The final volume was 100 μL/well.
(6) Fluorescence intensity ratio refers to the fluorescence intensity at 340 nm over the fluorescence intensity at 380 nm at a particular time point. The baseline was set as the average of the fluorescent intensity ratios for the first 16 time points before the addition of agonist solution. The maximum response was the highest fluorescent intensity ratio during the 60 time points following addition of agonist solution.
(7) Maximal signal ratios from each well were calculated as output data using the FDSS-3000 analysis program. Data were analyzed using Excel (Microsoft) and XLfit (idbs) software.
Two different agonist solutions with different H2SO4 concentrations were used for the pH assay (FIG. 3A). For one half of a 96-well plate one agonist solution was used, for the other half the other agonist solution. The agonist solutions were obtained by diluting sulfuric acid (H2SO4, 1M) with measuring buffer. The concentrations for the two agonist solutions were determined as described above in Section 2 of Protocol 2.
The sulfuric acid concentrations between the two agonist solutions differed by 0.5 mM. […] After 1:4 dilution of the agonist solutions, the final sulfuric acid concentration was 3.2 mM and 3.3 mM, respectively. The resulting pH value for the pH assay was 5.0 to 5.1.
Test compounds were dissolved in DMSO to yield 1 mM stock solutions. […] The thereby-obtained solutions were further diluted in measuring buffer (1:100) as 10× stock serial dilutions with a DMSO concentration of 1%. 10 μL of a 10× stock was added into each well at step 3.3.(4) of Protocol 2.
Steps (1) and (2) of this Assay were the same as steps 2.2.(1) and 2.2.(2) of Protocol 2, respectively.
(3) The cells were washed twice with 150 μL of measuring buffer (mentioned in 2.2.(3) of Protocol 2, no probenecid). The wells were subsequently refilled with 70 μL of measuring buffer.
(4) Either 10 μl of measuring buffer or 10 μL of 10× stock serial dilution of test compound (described in 3.2. above) were applied to each well. Usually, only one test compound was tested per 96-well plate. The number of replicates per 96-well plate for a particular antagonist at a particular concentration was 7×2 since two different sulfuric acid concentrations were used per 96-well plate (N=7×2) (FIG. 3).
Step (5) was the same as 2.2.(4) above.
(6) Fura-2 fluorescent intensity was monitored as described in 2.2.(5) above. After 16 time points of baseline detection, 20 μL of agonist solution (measuring buffer titrated with H2SO4 to yield pH 5.0-5.1 when mixed 1:4 with the measuring buffer containing test compound) was added to each well (final volume 100 μL/well).
Steps (7) and (8) were as described in 2.2.(6) and 2.2.(7) above, respectively.
(1) The pH values of the buffer in the wells of A1→H1 and A7→H7 (longitudinally; FIG. 3) were measured one by one using a portable pH meter.

Setting [1] is: read-out: IC50 value by the pH-Based Assay.
Setting [2] is: compounds of the invention, read-out: TRPV1 IC50 Potency (pH-Based Assay), Compound IC50.
The mark [3] stands for this setting: comparative compounds without the substituted alkyl group, read-out: TRPV1 IC50 Potency (pH-Based Assay), Comparative compound IC50.

As usually defined, the IC50 is the concentration needed to halve the response being measured. In the case of `Cc1ccc2nc(NC(=O)N3CCN(c4ncc(C[C@H](O)CO)cc4F)[C@@H](C)C3)sc2c1` [AFP, (S)-4-(5-((S)-2,3-dihydroxypropyl)-3-fluoropyridin-2-yl)-3-methyl-N-(6-methylbenzo[d]thiazol-2-yl)piperazine-1-carboxamide], the concentration for half-maximal inhibition (IC50) under setting [1] was at most 0.05 µM.
In the case of `O=C(Nc1ccc(C(F)(F)F)c(Cl)c1)N1CC=C(c2ncc(C[C@@H](O)CO)cc2F)CC1` [AAY, (R)-N-(3-chloro-4-(trifluoromethyl)phenyl)-5-(2,3-dihydroxypropyl)-3-fluoro-5′,6′-dihydro-[2,4′-bipyridine]-1′(2′H)-carboxamide], the IC50 under setting [1] is at most 0.05 µM.
As for `O=C(Nc1nc2ccc(F)cc2s1)N1CC=C(c2ncc(CC(O)CO)cc2Cl)CC1` (stereo not drawn), under setting [2], the IC50 amounted to 0.005 µM.
With `Cc1ccc2nc(NC(=O)N3CCN(c4ncc(C[C@@H](O)CO)cc4F)[C@@H](C)C3)sc2c1` [AFO, (S)-4-(5-((R)-2,3-dihydroxypropyl)-3-fluoropyridin-2-yl)-3-methyl-N-(6-methylbenzo[d]thiazol-2-yl)piperazine-1-carboxamide], the IC50 under setting [1] is at most 0.05 µM.
Regarding `O=C(Nc1ccc(C(F)(F)F)cn1)N1CCC(F)(c2ncc([C@H](O)[C@H](O)CO)cc2Cl)CC1`, under setting [2], the IC50 worked out at 0.143 µM.
As to `Cc1cc(NC(=O)N2CCC(F)(c3ncc(C[C@H](O)CO)cc3F)CC2)ccc1OC(F)(F)F` [ACR, (S)-4-(5-(2,3-dihydroxypropyl)-3-fluoropyridin-2-yl)-4-fluoro-N-(3-methyl-4-(trifluoromethoxy)phenyl)piperidine-1-carboxamide], the IC50 under setting [1] is at most 0.05 µM.
For the compound `C[C@H]1CN(C(=O)Nc2nc3ccc(F)cc3s2)CCN1c1ncc(C[C@H](O)CO)cc1F` [AFM, (S)-4-(5-((S)-2,3-dihydroxypropyl)-3-fluoropyridin-2-yl)-N-(6-fluorobenzo[d]thiazol-2-yl)-3-methylpiperazine-1-carboxamide], the IC50 under setting [1] was at most 0.05 µM.
`O=C(Nc1nc2ccc(F)cc2s1)N1CC=C(c2ncc(C[C@H](O)CO)cc2Cl)CC1` [AAH]: the IC50 under setting [1] was at most 0.05 µM.
The same measure, in the same setting: then `C[C@H]1CN(c2ncc(C[C@H](O)CO)cc2F)CCN1C(=O)Nc1nc2ccc(F)cc2s1` [AEL], with at most 0.05 µM; and `O=C(Nc1nc2ccccc2s1)N1CCN(c2ncc(C[C@H](O)CO)cc2Cl)CC1` [ADS], with at most 0.05 µM.
With `O=C(Nc1ccc(C(F)(F)F)cn1)N1CC=C(c2ncc(CC(O)CO)cc2Cl)CC1` (stereo not drawn), the IC50 under setting [2] stood at 0.038 µM.
Still for that read-out and setting: then `O=C(Nc1ccc(OC(F)(F)F)cn1)N1CC=C(c2ncc(C(F)(F)[C@@H](O)CO)cc2Cl)CC1`, with 0.046 µM.
As for `Cc1cc(NC(=O)N2CC=C(c3ncc(C[C@H](O)CO)cc3Cl)CC2)ccc1C(F)(F)F` [ACG, (S)-4-(3-Chloro-5-(2,3-dihydroxypropyl)pyridin-2-yl)-N-(3-methyl-4-(trifluoromethyl)phenyl)-5,6-dihydropyridine-1(2H)-carboxamide], the IC50 under setting [1] is at most 0.05 µM.
As for `C[C@@H]1CN(c2ncc(C[C@H](O)CO)cc2F)C[C@H](C)N1C(=O)Nc1nc2ccc(F)cc2s1` [AFU], under setting [1], the IC50 is at most 0.05 µM.
Same read-out and setting: the result for `O=C(Nc1ccc(C(F)(F)F)c(Cl)c1)N1CCC(F)(c2ncc([C@H](O)[C@@H](O)CO)cc2Cl)CC1` [ABG, N-(3-Chloro-4-(trifluoromethyl)phenyl)-4-(3-chloro-5-((1S,2S)-1,2,3-trihydroxypropyl)pyridin-2-yl)-4-fluoropiperidine-1-carboxamide] reads at most 0.05 µM.
On to `C[C@@H]1CN(c2ncccc2Cl)CCN1C(=O)Nc1nc2ccc(F)cc2s1` [reference compound], for which, under setting [3], the IC50 was 0.024 µM.
Regarding `O=C(Nc1ccc(C(F)(F)F)cn1)N1CC=C(c2ncc(C[C@@H](O)CO)cc2Cl)CC1` [AAJ, (R)-4-(3-Chloro-5-(2,3-dihydroxypropyl)pyridin-2-yl)-N-(5-(trifluoromethyl)pyridin-2-yl)-5,6-dihydropyridine-1(2H)-carboxamide], the IC50 under setting [1] is at most 0.05 µM.
In the case of `O=C(Nc1ccc(C(F)(F)F)cc1)N1CC=C(c2ncc(CC(O)CO)cc2Cl)CC1` (stereo not drawn), the IC50 under setting [2] amounted to 0.012 µM.
Regarding `O=C(Nc1ccc(C(F)(F)F)c(Cl)c1)N1CC=C(c2ncccc2Cl)CC1` [drawing 493, reference compound], under setting [3], the IC50 amounted to 0.077 µM.
Consider `C[C@H]1CN(c2ncc(C[C@@H](O)CO)cc2C(F)(F)F)CCN1C(=O)Nc1nc2ccccc2s1` [AGV], for which the IC50 under setting [1] is at most 0.05 µM.
For the compound `O=C(Nc1nc2ccc(F)cc2s1)N1CC=C(c2ncccc2Cl)CC1` [reference compound], the IC50 under setting [3] worked out at 0.943 µM.
Take `O=C(Nc1nc2ccc(F)cc2s1)N1C2CCC1CN(c1ncc(C[C@H](O)CO)cc1F)C2` [AHB]: the IC50 under setting [1] is at most 0.05 µM.
Take `O=C(Nc1ccc(C(F)(F)F)c(Cl)c1)N1CC=C(c2ncc(CC(O)CO)cc2Cl)CC1` (stereo not drawn): the IC50 under setting [2] was 0.01 µM.
Take `CO[C@@H]1CN(c2ncc(C[C@@H](O)CO)cc2Cl)CCN1C(=O)Nc1nc2ccc(F)cc2s1`: the IC50 under setting [2] is 0.001 µM.
Regarding `O=C(Nc1ccc(C(F)(F)F)c(Cl)c1)N1CC=C(c2ncc(C[C@H](O)CO)cc2F)CC1` [AAZ, (S)-N-(3-chloro-4-(trifluoromethyl)phenyl)-5-(2,3-dihydroxy-propyl)-3-fluoro-5′,6′-dihydro-[2,4′-bipyridine]-1′(2′H)-carboxamide], the IC50 under setting [1] was at most 0.05 µM.
Turning to `Cc1cc([C@H](O)[C@@H](O)CO)cnc1C1(F)CCN(C(=O)Nc2ccc(C(F)(F)F)c(Cl)c2)CC1` [ABH, N-(3-Chloro-4-(trifluoromethyl)phenyl)-4-fluoro-4-(3-methyl-5-((1S,2S)-1,2,3-trihydroxypropyl)pyridin-2-yl)piperidine-1-carboxamide], the IC50 under setting [1] is at most 0.05 µM.
On the same count and under the same terms, the result for `C[C@H]1CN(c2ncc(C[C@@H](O)CO)cc2F)CCN1C(=O)Nc1nc2ccc(F)cc2s1` [AEJ] reads at most 0.05 µM.
The same measure, in the same setting: then `Cc1cc(NC(=O)N2CC=C(c3ncc(C(F)(F)[C@@H](O)CO)cc3Cl)CC2)ccc1C(F)(F)F` [ADC, (S)-4-(3-chloro-5-(1,1-difluoro-2,3-dihydroxypropyl)pyridin-2-yl)-N-(3-methyl-4-(trifluoromethyl)phenyl)-5,6-dihydropyridine-1(2H)-carboxamide], with at most 0.05 µM; and `O=C(Nc1nc2ccc(F)cc2s1)N1CC=C(c2ncc(C[C@@H](O)CO)cc2Cl)CC1` [AAL, (R)-4-(3-Chloro-5-(2,3-dihydroxypropyl)pyridin-2-yl)-N-(6-fluorobenzo[d]thiazol-2-yl)-5,6-dihydropyridine-1(2H)-carboxamide], with at most 0.05 µM.
The same measure, in the same setting: the result for `Cc1cc2nc(NC(=O)N3CCN(c4ncc(C[C@@H](O)CO)cc4F)C[C@@H]3C)sc2cc1C` [AET] reads at most 0.05 µM; that for `Cc1cc2nc(NC(=O)N3CCN(c4ncc(C[C@H](O)CO)cc4F)C[C@@H]3C)sc2cc1C` [AEU], at most 0.05 µM.
Consider `C[C@H]1CN(c2ncc(C[C@H](O)CO)cc2F)CCN1C(=O)Nc1nc2ccc(SC(F)(F)F)cc2s1` [AGR], for which the IC50 under setting [1] is at most 0.05 µM.
`O=C(Nc1ccc(C(F)(F)F)c(Cl)c1)N1CC=C(c2ncccc2Cl)CC1` [drawing 478, reference compound]: the IC50 under setting [3] amounted to 0.139 µM.
In the case of `O=C(Nc1ccc(OC(F)(F)F)c(Cl)c1)N1CC=C(c2ncc(C[C@@H](O)CO)cc2Cl)CC1`, the IC50 under setting [2] worked out at 0.017 µM.
In the case of `O=C(Nc1nc2ccc(C(F)(F)F)cc2s1)N1CCC(F)(c2ncc(C[C@H](O)CO)cc2Cl)CC1`, the half-inhibitory concentration (IC50) under setting [2] turned out to be 0.614 µM.
Turning to `C[C@H]1CN(c2ncc(C[C@H](O)CO)cc2F)CCN1C(=O)Nc1nc2cc(F)c(F)cc2s1` [AEZ], under setting [1], the IC50 is at most 0.05 µM.
